In US20090028925A1, “Novel Phosphinic Acid-Containing Thyromimetics” (priority 2005, published 2009):
Where two headings read alike, the source gives them in different places.

What was measured:
[1] = molecular target: T1, human thyroid hormone receptors TRα1 (Homo sapiens, UniProt P10827); experiment: Receptor binding to TRα1 (gel filtration and scintillation proximity assay, labeled T3); conditions: SPA data; read-out: Ki TRα
T1 construct: made in house; host or cells: Sf9 insect cells (baculovirus)
T1 sequence (P10827 1-410 isoform P10827-2): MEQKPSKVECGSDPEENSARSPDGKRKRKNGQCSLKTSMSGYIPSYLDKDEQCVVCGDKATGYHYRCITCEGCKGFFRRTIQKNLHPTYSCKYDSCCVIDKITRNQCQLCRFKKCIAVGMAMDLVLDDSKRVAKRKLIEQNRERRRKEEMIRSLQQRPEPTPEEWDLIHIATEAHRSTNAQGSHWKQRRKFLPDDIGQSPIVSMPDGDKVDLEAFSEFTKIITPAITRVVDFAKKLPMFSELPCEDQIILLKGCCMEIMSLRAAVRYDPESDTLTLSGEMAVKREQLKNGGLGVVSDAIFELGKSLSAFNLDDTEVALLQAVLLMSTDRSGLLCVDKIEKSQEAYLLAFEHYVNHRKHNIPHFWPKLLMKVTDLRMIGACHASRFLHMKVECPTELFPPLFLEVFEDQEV
T1 sequence (P19793 1-462 partner): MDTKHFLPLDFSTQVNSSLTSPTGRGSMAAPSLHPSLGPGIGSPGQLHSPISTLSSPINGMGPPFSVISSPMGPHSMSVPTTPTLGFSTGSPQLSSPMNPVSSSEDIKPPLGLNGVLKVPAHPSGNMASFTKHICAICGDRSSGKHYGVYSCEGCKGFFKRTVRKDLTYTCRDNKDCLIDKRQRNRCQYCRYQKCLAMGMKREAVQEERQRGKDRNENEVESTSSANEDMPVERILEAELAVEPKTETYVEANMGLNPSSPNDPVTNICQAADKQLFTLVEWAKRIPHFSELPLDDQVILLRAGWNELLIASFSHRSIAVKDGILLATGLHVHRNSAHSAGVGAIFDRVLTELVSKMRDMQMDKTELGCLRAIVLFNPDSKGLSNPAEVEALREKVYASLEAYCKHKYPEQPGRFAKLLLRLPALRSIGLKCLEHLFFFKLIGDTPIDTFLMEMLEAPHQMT

[2] = molecular target: T2, human thyroid hormone receptors TRβ1 (Homo sapiens, UniProt P10828); experiment: Receptor binding to TRβ1 (gel filtration and scintillation proximity assay, labeled T3); conditions: SPA data; read-out: Ki TRβ
T2 construct: made in house; host or cells: Sf9 insect cells (baculovirus)
T2 sequence (P10828 1-461): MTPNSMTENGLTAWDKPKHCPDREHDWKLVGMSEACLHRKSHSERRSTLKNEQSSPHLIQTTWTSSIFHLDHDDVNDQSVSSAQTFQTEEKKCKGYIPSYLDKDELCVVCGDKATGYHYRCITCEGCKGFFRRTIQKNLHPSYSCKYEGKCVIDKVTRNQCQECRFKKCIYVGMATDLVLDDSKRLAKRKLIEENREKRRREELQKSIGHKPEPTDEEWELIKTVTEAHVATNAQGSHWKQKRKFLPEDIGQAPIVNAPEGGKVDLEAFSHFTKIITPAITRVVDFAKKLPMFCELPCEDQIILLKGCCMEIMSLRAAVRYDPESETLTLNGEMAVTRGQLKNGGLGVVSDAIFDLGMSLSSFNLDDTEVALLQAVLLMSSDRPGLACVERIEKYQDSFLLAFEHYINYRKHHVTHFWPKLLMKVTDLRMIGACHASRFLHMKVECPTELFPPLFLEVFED
T2 sequence (P19793 1-462 partner): T1 sequence (P19793 1-462 partner)

[3] = Prodrug activation in rat liver microsomes; assay type: in vitro ADME
Text: (§1) The purpose of these studies was to determine the kinetics of activation of prodrugs of thyromimetics in microsomal preparations. Microsomes contain the P450 enzyme that is required for the activation of many of the prodrugs prepared. The Km, Vmax, and intrinsic clearance values determined are measures of prodrug affinity for the microsomal enzymes, the rate at which the prodrug is activated, and the catalytic efficiency with which the prodrug is activated, respectively.
(§2) Methods: Activation of prodrugs by dexamethasone treated rat hepatocyte microsomes. Microsomes were isolated by standard differential centrifugation methods from dexamethasone-treated rats. The treatment is to increase cytochrome P450-3A (CYP3A4) activity. Induction of CYP3A4 was confirmed by an increase in testosterone hydroxylation.
(§3) Various concentrations of HepDirect™ Compound 7 were incubated with rat hepatocytes microsomes. Compound 7 formation was analyzed by HPLC using UV-Vis detection. Kinetic parameters (Vmax and Km) were calculated from the transformed data and the intrinsic clearance calculated from the kinetic parameters.

[4] = system: CYP3A (cytochrome P450-3A (CYP3A4)); experiment: Prodrug activation in rat liver microsomes; assay type: in vitro ADME; conditions: liver microsomes from dexamethasone-treated rats; dexamethasone treated rat microsomes, formation of Compound 7
Text: as §1, §2, §3

[5] = system: plasma cholesterol; experiment: Cholesterol lowering in hypercholesterolemic rats; assay type: in vivo; conditions: for change in vivo at 0.2 mg/kg/day: Rattus norvegicus, read-out: % Cholesterol Lowering
[6] = Continuous infusion study in rats on a cholesterol-containing diet; assay type: in vivo; conditions: continuous infusion 1 mg/kg/day; for cholesterol lowering effects: day 7 and day 14; for cardiovascular parameters (heart rate, LV dP/dt, systolic and diastolic blood pressure): day 7 or day 14
Protocol: Screening for thyromimetic activity was performed in normal rats maintained on a cholesterol-containing diet. Compounds were administered by continuous infusion using an osmotic pump at 1 mg/kg/day.

[7] = ip, delivered i.p (0.2 mg/kg/d), percentage change from pre-dose cholesterol
[8] = po, delivered p.o. (0.2 mg/kg/d), percentage change from pre-dose cholesterol

Compound	Ki [1]	Ki [2]	change in vivo at 0.2 mg/kg/day [5, 7]	change in vivo at 0.2 mg/kg/day [5, 8]	also measured
Cc1cc(OCP(=O)(OCOC(=O)OC(C)C)OCOC(=O)OC(C)C)cc(C)c1Cc1ccc(O)c(C(C)C)c1 [Compound 12-3, di(isopropoxycarbonyloxymethyl)[3,5-dimethyl-4-(4′-hydroxy-3′-iso-propylbenzyl)phenoxy]methylphosphonate]	738 nM	156 nM	–	–	Vmax ([3]; dexamethasone treated rat microsomes, formation of Compound 7): 775 pmol/min/mg; microsomal CLint ([3]; rat, liver microsomes from dexamethasone-treated rats, intrinsic clearance calculated from the kinetic parameters): 54 µL/min/mg; Km [4]: 14 µM
Cc1cc(OCP(=O)(O)O)cc(C)c1Oc1ccc(O)c(C(C)C)c1 [Compound 31, [3,5-dimethyl-4-(4′-hydroxy-3′-iso-propylphenoxy)phenoxy]methylphosphonic acid]	540 nM	73 nM	-21.1%	–	–
Cc1cc(OCP(=O)(O)O)cc(C)c1Cc1ccc(O)c(C(=O)NCCc2ccccc2)c1 [Compound 37, [3,5-dimethyl-4-(4′-hydroxy-3′-phenethylcarbamoylbenzyl)phenoxy]methylphosphonic acid]	294 nM	23 nM	-0.4%	–	–
Cc1cc(OCP(=O)(O)O)cc(C)c1Cc1ccc(O)c(Cc2ccccc2)c1 [Compound 38, [4-(3′-benzyl-4′-hydroxy-benzyl)-3,5-dimethylphenoxy]methylphosphonic acid]	254 nM	5.4 nM	-21.7%	–	–
Cc1cc(OCP(=O)(O)O)cc(C)c1Cc1ccc(O)c(Cc2ccc(F)cc2)c1 [Compound 40, [3,5-dimethyl-4-[3′-(4-fluoro-benzyl)-4′-hydroxy-benzyl]phenoxy]methylphosphonic acid]	30 nM	1.1 nM	-64.2%	-27.3%	–
Cc1cc(CCP(=O)(O)O)cc(C)c1Cc1ccc(O)c(Cc2ccccc2)c1 [Compound 42, 2-[3,5-dimethyl-4-[3′-benzyl-4′-hydroxy-benzyl]phenyl]-ethylphosphonic acid]	794 nM	16.2 nM	-28.8%	–	–
Cc1cc2oc(P(=O)(O)O)cc2c(C)c1Cc1ccc(O)c(C(C)C)c1 [Compound 45, [4,6-Dimethyl-5-(4′-hydroxy-3′-iso-propyl)benzyl]benzofuran-2-phosphonic Acid]	216 nM	14 nM	-46.3%	-40.4%	–
Cc1cc(OCP(=O)(O)O)c(I)c(C)c1Cc1ccc(O)c(C(C)C)c1 [Compound 46, [3,5-Dimethyl-4-(4′-hydroxy-3′-iso-propylbenzyl)-2-iodophenoxy]methylphosphonic Acid]	20 nM	2 nM	-29.6%	-23.8%	–
Cc1cc(NCP(=O)(O)O)cc(C)c1Cc1ccc(O)c(C(C)C)c1 [Compound 47, [3,5-Dimethyl 4-(4′-hydroxy-3′-iso-propylbenzyl)-phenylamino]methylphosphonic Acid]	24.3 nM	2.5 nM	-29.3%	–	–
Cc1cc(OCP(=O)(O)O)cc(C)c1Cc1ccc(O)c(C2CC2)c1 [Compound 48, [4-(3′-cyclopropyl-4′-hydroxybenzyl)-3,5-dimethylphenoxy]methylphosphonic acid]	129 nM	9 nM	-23.4%	–	–
Cc1cc(S(=O)(=O)CP(=O)(O)O)cc(C)c1Cc1ccc(O)c(C(C)C)c1 [Compound 52, [3,5-dimethyl-4-(4′-Hydroxy-3′-iso-propylbenzyl)benzenesulfonyl]methylphosphonic acid]	> 2000 nM	48 nM	-18.8%	–	–
Cc1cc(OCP(=O)(O)O)c(C)c(C)c1Cc1ccc(O)c(C(C)C)c1 [Compound 61, [4-(4′-hydroxy-3′-isopropylbenzyl)-2,3,5-trimethylphenoxymethyl]phosphonic acid]	42.7 nM	1.4 nM	–	-33.7%	–
Cc1cc2[nH]c(P(=O)(O)O)cc2c(C)c1Oc1ccc(O)c(C(C)C)c1 [Compound 66]	863 nM	121 nM	-42.9%	-12.5%	–
CC(C)c1cc(Oc2c(Br)cc(CCP(=O)(O)O)cc2Br)ccc1O [Compound 67, 2-[3,5-dibromo-4-(4′-hydroxy-3′-isopropylphenoxy)phenyl]ethylphosphonic Acid]	37 nM	1.8 nM	–	-17%	–
COP(=O)(O)COc1cc(C)c(Cc2ccc(O)c(C(C)C)c2)c(C)c1 [Compound 69, [3,5-dimethyl-4-(4′-hydroxy-3′-iso-propylbenzyl)phenoxy]methylphosphonic acid monomethyl ester]	13.5 nM	3 nM	–	–	change in vivo at 0.2 mg/kg/day ([5]; po): -41.9%; cholesterol lowering effects [6]: demonstrated cholesterol lowering effects; cardiovascular parameters (heart rate, LV dP/dt, systolic and diastolic blood pressure) [6]: no changes in any of the cardiovascular parameters
CCOP(=O)(O)COc1cc(C)c(Cc2ccc(O)c(C(C)C)c2)c(C)c1 [Compound 69-1, [3,5-dimethyl-4-(4′-hydroxy-3′-iso-propylbenzyl)phenoxy]methylphosphonic acid monoethyl ester]	–	–	–	–	cholesterol lowering effects [6]: demonstrated cholesterol lowering effects; cardiovascular parameters (heart rate, LV dP/dt, systolic and diastolic blood pressure) [6]: no changes in any of the cardiovascular parameters
COP(=O)(O)Cc1cc(Br)c(Oc2ccc(O)c(C(C)C)c2)c(Br)c1 [Compound 69-2, [3,5-dibromo-4-(4′-hydroxy-3′-isopropylphenoxy)benzyl]phosphonic Acid Monomethyl Ester]	2.8 nM	0.8 nM	–	–	change in vivo at 0.2 mg/kg/day ([5]; po): -49.9%
Cc1cc(OCP(C)(=O)O)cc(C)c1Cc1ccc(O)c(C(C)C)c1 [Compound 70, [3,5-dimethyl-4-(4′-hydroxy-3′-iso-propylbenzyl)phenoxymethyl]methylphosphinic acid]	183 nM	5.4 nM	–	-32.8%	cholesterol lowering effects [6]: demonstrated cholesterol lowering effects; cardiovascular parameters (heart rate, LV dP/dt, systolic and diastolic blood pressure) [6]: no changes in any of the cardiovascular parameters
CC(C)c1cc(Oc2c(Br)cc(CP(C)(=O)O)cc2Br)ccc1O [Compound 71, [3,5-Dibromo-4-(4′-hydroxy-3′-isopropylphenoxy)benzyl]methylphosphinic Acid]	4 nM	0.4 nM	–	-54.4%	–
[3,5-dimethyl-4-(4′-Hydroxy-3′-iso-propyl-phenyl)methoxymethyl]phenoxy]methylphosphonic acid [Compound 33]	267 nM	16.7 nM	–	–	% Cholesterol Lowering ([5]; delivered i.p (0.2 mg/kg/d), percentage change from pre-dose cholesterol): −32.5%
